From ChEMBL document CHEMBL5137024, “Discovery of novel coumarin-indole derivatives as tubulin polymerization inhibitors with potent anti-gastric cancer activities” (Eur J Med Chem, 2022)
Activity calls are given as the source filed them. The calls are words filed in the database; no cut-off is given here.

What was measured:
[1] = tested on: MGC-803; experiment: Downregulation of ATF4 expression in human MGC-803 cells incubated for 48 hrs; format: functional, cell-based; conditions: dose 5-15 nM, DDE = dose-dependent effect
[2] = tested on: MGC-803; experiment: Induction of apoptosis in human MGC-803 cells assessed as nuclear fragmentation at 5 to 15 nM incubated for 48 hrs by DAPI staining based analysis; format: functional, cell-based; conditions: dose 5-15 nM
[3] = biological target: Tubulin (Homo sapiens) (UniProt P68371+Q9H4B7+P0DPH7+P68366+Q13509+Q71U36+P04350+Q3ZCM7+P07437+P68363+Q9BQE3+Q6PEY2+Q13885+Q9BVA1+Q9BUF5); experiment: Disruption of microtubule network in human HGC-27 cells assessed as irregular form of filamentous microtubule structures at 10 to 30 nM measured after 48 hrs by DAPI staining based fluorescence microscopic analysis; format: cell-based; conditions: dose 10-30 nM
[4] = tested on: MGC-803; experiment: Downregulation of FoxO3a expression in human MGC-803 cells incubated for 48 hrs; format: functional, cell-based; conditions: dose 5-15 nM, DDE = dose-dependent effect
[5] = tested on: HGC-27; experiment: Induction of apoptosis in human HGC-27 cells assessed as increase in dead cells at 10 to 30 nM incubated for 48 hrs by calcein-AM dye/propidium iodide staining based analysis; format: functional, cell-based; conditions: dose 10-30 nM
[6] = tested on: HGC-27; experiment: Downregulation of vimentin expression in human HGC-27 cells incubated for 48 hrs; format: functional, cell-based; conditions: dose 10-30 nM, DDE = dose-dependent effect
[7] = tested on: MGC-803; experiment: Induction of apoptosis in human MGC-803 cells assessed as decrease in cell density at 5 to 15 nM incubated for 48 hrs by bright field imaging analysis; format: functional, cell-based; conditions: dose 5-15 nM
[8] = tested on: HGC-27; experiment: Induction of apoptosis in human HGC-27 cells assessed as increase in total apoptotic cells at 30 nM incubated for 48 hrs by annexin V FITC and propidium iodide staining based flow cytometry analysis (reference value: 7.2%); format: functional
[9] = tested on: HGC-27; experiment: Inhibition of p38 signalling pathway in human HGC-27 cells assessed as reduction in MKK3/6 phosphorylation at 10 to 30 nM incubated for 48 hrs; format: cell-based; conditions: dose 10-30 nM
[10] = Toxicity in BALB/c nude mouse xenografted with human MGC-803 cells assessed as pathological changes in liver at 15 to 30 mg/kg, ip administered once daily for 21 days by Hematoxyin-eosin staining based analysis; format: organism-based; conditions: in vivo, 504 h, dose 15-30 mg/kg, time 21 day
[11] = tested on: MGC-803; experiment: Antitumor activity against human MGC-803 cells xenografted BALB/c nude mouse assessed as inhibition of tumor volume at 15 to 30 mg/kg, ip administered once daily for 21 days and measured every 2 days; format: functional, organism-based; conditions: dose 15-30 mg/kg, time 21.0 day
[12] = tested on: MCF7; experiment: Antiproliferative activity against human MCF7 cells assessed as reduction in cell viability incubated for 48 hrs by MTT assay; format: functional, cell-based; conditions: MCF7, 48 h
[13] = biological target: Tubulin (Sus scrofa, UniProt P02554+P02550); experiment: Inhibition of porcine brain tubulin polymerization by fluorescence based assay; format: tissue-based
[14] = tested on: HGC-27; experiment: Downregulation of MMP-9 expression in human HGC-27 cells incubated for 48 hrs; format: functional, cell-based; conditions: dose 10-30 nM, DDE = dose-dependent effect
[15] = tested on: MGC-803; experiment: Induction of apoptosis in human MGC-803 cells assessed as increase in total apoptotic cells at 15 nM incubated for 48 hrs by annexin V FITC and propidium iodide staining based flow cytometry analysis (reference value: 3.4%); format: functional
[16] = tested on: SH-SY5Y; experiment: Antiproliferative activity against human SH-SY5Y cells assessed as reduction in cell viability incubated for 48 hrs by MTT assay; format: functional, cell-based
[17] = tested on: HGC-27; experiment: Induction of apoptosis in human HGC-27 cells assessed as nuclear fragmentation at 10 to 30 nM incubated for 48 hrs by DAPI staining based analysis; format: functional, cell-based; conditions: dose 10-30 nM
[18] = tested on: MGC-803; experiment: Induction of apoptosis in human MGC-803 cells assessed as increase in cleavage substrate PARP level; format: functional, cell-based; conditions: dose 5-15 nM, DDE = dose-dependent effect
[19] = Induction of mitochondria mediated intrinsic apoptosis in human MGC-803 cells assessed as early apoptotic cells at 15 nM measured after 48 hrs by flow cytometry analysis (Rvb= 1.6%); format: functional
[20] = tested on: HGC-27; experiment: Induction of cell cycle arrest in human HGC-27 cells assessed as accumulation of cells at G2/M phase at 15 nM incubated for 48 hrs by propidium iodide staining based flow cytometry analysis (reference value: 11%); format: functional
[21] = tested on: HGC-27; experiment: Induction of apoptosis in human HGC-27 cells assessed as increase in Noxa level; format: functional, cell-based; conditions: dose 10-30 nM, DDE = dose-dependent effect
[22] = tested on: MGC-803; experiment: Antiproliferative activity against human MGC-803 cells assessed as reduction in cell viability at 15 to 30 nM by MTT assay; format: functional, cell-based; conditions: dose 15-30 nM, time 12-48 hrs, TDE = time-dependent effect
[23] = biological target: c-Jun N-terminal kinase, JNK (Homo sapiens) (UniProt P45983+P53779+P45984); experiment: Inhibition of JNK signalling pathway in human MGC-803 cells assessed as reduction in JNK phosphorylation at 5 to 15 nM incubated for 48 hrs; format: cell-based; conditions: dose 5-15 nM
[24] = tested on: MGC-803; experiment: Induction of apoptosis in human MGC-803 cells assessed as cell rounding at 5 to 15 nM incubated for 48 hrs by bright field imaging analysis; format: functional, cell-based; conditions: dose 5-15 nM
[25] = tested on: MGC-803; experiment: Induction of apoptosis in human MGC-803 cells assessed as decrease in Mcl-1 level; format: functional, cell-based; conditions: dose 5-15 nM, DDE = dose-dependent effect
[26] = tested on: EC9706; experiment: Antiproliferative activity against human EC9706 cells assessed as reduction in cell viability incubated for 48 hrs by MTT assay; format: functional, cell-based; conditions: EC9706, 48 h
[27] = tested on: HGC-27; experiment: Downregulation of Wee1 expression in human HGC-27 cells at 10 to 30 nM incubated for 48 hrs; format: functional, cell-based; conditions: dose 10-30 nM
[28] = tested on: HGC-27; experiment: Induction of apoptosis in human HGC-27 cells assessed as cell rounding at 10 to 30 nM incubated for 48 hrs by bright field imaging analysis; format: functional, cell-based; conditions: dose 10-30 nM
[29] = tested on: MGC-803; experiment: Induction of apoptosis in human MGC-803 cells assessed as increase in dead cells at 5 to 15 nM incubated for 48 hrs by calcein-AM dye/propidium iodide staining based analysis; format: functional, cell-based; conditions: dose 5-15 nM
[30] = tested on: HGC-27; experiment: Induction of apoptosis in human HGC-27 cells assessed as increase in cleavage substrate PARP level; format: functional, cell-based; conditions: dose 10-30 nM, DDE = dose-dependent effect
[31] = tested on: TE-1; experiment: Antiproliferative activity against human TE-1 cells assessed as reduction in cell viability incubated for 48 hrs by MTT assay; format: functional, cell-based; conditions: TE-1, 48 h
[32] = tested on: HGC-27; experiment: Antiinvasive activity against human HGC-27 cells assessed as reduction in number of cells in membrane incubated for 48 hrs by trans well assay; format: functional, cell-based; conditions: dose 10-30 nM, DDE = dose-dependent effect
[33] = tested on: MGC-803; experiment: Induction of apoptosis in human MGC-803 cells assessed as increase in cleavage caspase 3 level; format: functional, cell-based; conditions: dose 5-15 nM, DDE = dose-dependent effect
[34] = tested on: HepG2; experiment: Antiproliferative activity against human HepG2 cells assessed as reduction in cell viability incubated for 48 hrs by MTT assay; format: functional, cell-based; conditions: HepG2, 48 h
[35] = tested on: HGC-27; experiment: Inhibition of p38 signalling pathway in human HGC-27 cells assessed as reduction in downstream substrate MAPKAPK2 phosphorylation at 10 to 30 nM incubated for 48 hrs; format: cell-based; conditions: dose 10-30 nM
[36] = tested on: HGC-27; experiment: Inhibition of ERK signalling pathway in human HGC-27 cells assessed as reduction in downstream substrate p90RSK phosphorylation at 10 to 30 nM incubated for 48 hrs; format: cell-based; conditions: dose 10-30 nM
[37] = tested on: CWR22R; experiment: Antiproliferative activity against human 22Rv1 cells assessed as reduction in cell viability incubated for 48 hrs by MTT assay; format: functional, cell-based; conditions: 22Rv1, 48 h

With `CN(c1ccc2c(ccn2C)c1)c1cc(=O)oc2ccccc12` the Activity [1] was “Dde”, the Activity [2] was “Active” and the Activity [3] was “Active”. For the same compound, the Activity [4] was “Dde”, the Activity [5] was “Active” and the Activity [6] was “Dde”. For the same compound, the Activity [7] was “Active”, the Activity [8] was 47.3% and the inhibition [9] was “Active”. For the same compound, the Activity [10] was “Non-Toxic”, the Activity [11] was “Active” and the IC50 [12] was 435 nM. The IC50 [13] was 2460 nM, the Activity [14] was “Dde” and the Activity [15] was 40.2%. For the same compound, the IC50 [16] was 19.4 nM, the Activity [17] was “Active” and the Activity [18] was “Dde”. For the same compound, the Activity [19] was 23.6%, the Activity [20] was 85% and the Activity [21] was “Dde”. For the same compound, the Activity [22] was “Tde”, the inhibition [23] was “Active” and the Activity [24] was “Active”. The Activity [25] was “Dde”, the IC50 [26] was 21.8 nM and the Activity [27] was “Active”. The Activity [28] was “Active”, the Activity [29] was “Active” and the Activity [30] was “Dde”. For the same compound, the IC50 [31] was 489 nM, the Activity [32] was “Dde” and the Activity [33] was “Dde”. The IC50 [34] was 45.5 nM, the inhibition [35] was “Active” and the inhibition [36] was “Active”. It also gave an IC50 [37] of 558 nM.
